Assay results from patent publication US11452714B2, “Antibacterial agents including histidine kinase inhibitors” (Regents of the University of Minnesota, priority 2017, dated 2022).
pIC50: −log10 of the molar value. Read-outs that look alike come from different tables or passages of the source.

What was measured:
histidine kinase HK853 [1] = molecular target: T1, histidine kinase HK853 (Thermotoga maritima, UniProt Q9WZV7); assay: biochemical
T1 sequence (Q9WZV7 232-489): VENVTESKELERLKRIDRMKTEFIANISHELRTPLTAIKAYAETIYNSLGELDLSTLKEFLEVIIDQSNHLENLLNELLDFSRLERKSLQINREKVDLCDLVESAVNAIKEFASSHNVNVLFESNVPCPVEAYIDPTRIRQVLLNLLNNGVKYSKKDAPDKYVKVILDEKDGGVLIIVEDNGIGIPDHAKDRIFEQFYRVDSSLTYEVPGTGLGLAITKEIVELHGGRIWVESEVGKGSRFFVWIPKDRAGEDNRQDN
Experimental: (§1) Triton X-100 was premixed with reaction buffer to yield 0.1% (v/v) in final 25-μL reactions. Samples were mixed and incubated in the dark at RT for 1 h before quenching with 8.6 μL 2×SDS-PAGE sample loading buffer and loading 10 μL on a 10%0/stacking gel. After SDS-PAGE, in-gel fluorescence detection elucidated HK853 activity, and silver staining of the gels ensured even protein loading. Integrated density values of the fluorescent gel bands were normalized as “% Activity” with respect to a control that contained no inhibitor. Data were plotted in GraphPad Prism (available from GraphPad Software, San Diego, Calif.) with relation to the log of molar inhibitor to determine IC50 values, using EQUATION 1.

histidine kinase HK853 [2] = molecular target: T1, histidine kinase HK853; details: for inhibition of HK853: non-native bases or nucleosides, in words
Experimental: as §1

HK853 = molecular target: T2, HK853 (Thermotoga maritima, UniProt Q9WZV7); details: for inhibition of HKs: in words; for IC50 values (95% confidence interval), n = 2: riluzole analogs, second TABLE 3, 0.1% Triton X-100
T2 sequence (Q9WZV7 232-489): T1 sequence (Q9WZV7 232-489)
Experimental: Triton X-100 was premixed with reaction buffer to yield 0.1% (v/v) in final 25-μL reactions. […] Samples were mixed and incubated in the dark at RT for 1 h before quenching with 8.6 μL 4×SDS-PAGE sample loading buffer and loading 15 μL on a 10% stacking gel. After SDS-PAGE, in-gel fluorescence detection elucidated HK853 activity, and coomassie staining of the gels ensured even protein loading. Integrated density values of the fluorescent gel bands were normalized as “% Activity” with respect to a control that contained no inhibitor.

[3] = IC50, sulfonyl fluoride side chains, Example 4
[4] = purine derivatives, TABLE 2, N/I = no inhibition
[5] = IC50, purine derivatives, TABLE 2, N/I = no inhibition
[6] = phenyl-adenine derivatives, first TABLE 3, N/I = no inhibition
[7] = adenine derivatives, TABLE 1, N/I = no inhibition was observed

## Nc1ncnc2c1ncn2C1OC(COC(=O)c2ccccc2)C(O)C1O (stereo not drawn)
Histidine kinase HK853 [1]
  pIC50: 3.72

## Nc1ncnc2c1ncn2C1OC(COC(=O)c2ccc(S(=O)(=O)F)cc2)C(O)C1O (stereo not drawn) [6-O-benzoyl adenosine, R=SO2F]
Histidine kinase HK853 [1]; [3]
  pIC50: 5.28

## OCC1OC(n2cnc3c(Cl)ncnc32)C(O)C1O (stereo not drawn) [CW19]
Histidine kinase HK853 [2]; [4]
  IC50: N/I

## Nc1nc(Cl)c2nc[nH]c2n1 [CW20]
Histidine kinase HK853 [2]; [4]
  pIC50: 3.93

## Nc1nc(Cl)nc2[nH]cnc12 [CW22]
Histidine kinase HK853 [2]; [4]
  pIC50: 3.81

## Nc1nc(F)nc2[nH]cnc12 [CW24]
Histidine kinase HK853 [2]; [4]
  pIC50: 3.51

## Nc1nc(F)nc2c1ncn2C1OC(CO)C(O)C1O (stereo not drawn) [CW25]
Histidine kinase HK853 [1]; [5]
  pIC50: 3.66

## Cn1cnc2c(N)ncnc21 [CW29]
Histidine kinase HK853 [1]; [5]
  pIC50: 3.82

## Cn1cnc2ncnc(N)c21 [CW30]
Histidine kinase HK853 [2]; [4]
  IC50: N/I

## OCC1OC(n2cnc3c(Nc4ccccc4)ncnc32)C(O)C1O (stereo not drawn) [CW35]
Histidine kinase HK853 [2]; [6]
  IC50: N/I

## Clc1nc(Nc2ccccc2)c2nc[nH]c2n1 [CW36]
Histidine kinase HK853 [2]; [6]
  IC50: N/I

## Clc1ccc(Nc2ncnc3[nH]cnc23)cc1 [CW37]
Histidine kinase HK853 [1]
  pIC50: 2.77

## Fc1ccc(Nc2ncnc3[nH]cnc23)cc1 [CW38]
Histidine kinase HK853 [1]
  pIC50: 2.72

## Nc1ncnc2c1ncn2C1OC(CO)C(O)C1O (stereo not drawn) [Compound C12]
Histidine kinase HK853 [1]
  pIC50: 3.35

## Cn1cnc2c(N)ncnc21 [Compound C13]
Histidine kinase HK853 [1]; IC50, adenine derivatives, TABLE 1, N/I = no inhibition was observed
  pIC50: 3.84

## c1ccc(Nc2ncnc3nc[nH]c23)cc1 [Compound C15]
Histidine kinase HK853 [1]
  pIC50: 5.12

## OCC1OC(n2cnc3c(Cl)ncnc32)C(O)C1O (stereo not drawn) [Compound C18]
Histidine kinase HK853 [2]; [7]
  IC50: N/I

## CCCN(CCC)c1ncnc2c1ncn2C1OC(CO)C(O)C1O (stereo not drawn) [Compound C19]
Histidine kinase HK853 [1]
  pIC50: 2.96

## Cn1cnc2ncnc(N)c21 [Compound C26]
Histidine kinase HK853 [2]; [7]
  IC50: N/I

## Nc1nc2nc[nH]c2c(=O)[nH]1 [Guanine, reference compound]
Histidine kinase HK853 [2]
  inhibition of HK853: did not appear to inhibit HK853

## Nc1nc2c(ncn2[C@@H]2O[C@H](CO)[C@@H](O)[C@H]2O)c(=O)[nH]1 [Guanosine, reference compound]
Histidine kinase HK853 [2]
  inhibition of HK853: did not appear to inhibit HK853

## OC[C@H]1O[C@@H](n2cnc3c(O)ncnc32)[C@H](O)[C@@H]1O [Inosine, reference compound]
Histidine kinase HK853 [2]
  inhibition of HK853: did not appear to inhibit HK853

## Nc1nc2c(Cl)cc(Cl)cc2s1 [Rilu-10]
HK853
  inhibition of HKs: did not significantly inhibit HKs
  IC50 values (95% confidence interval), n = 2: No Inhibition

## Nc1nc2cc(Br)c(Br)cc2s1 [Rilu-11]
HK853
  inhibition of HKs: did not significantly inhibit HKs
  IC50 values (95% confidence interval), n = 2: No Inhibition

## Nc1nc2ccc(NCc3ccc(S(=O)(=O)F)cc3)cc2s1 [riluzole analog with benzyl SO2F]
Histidine kinase HK853 [1]; [3]
  pIC50: 5.68
